Test results taken from ChEMBL document CHEMBL5634117 (Eur J Med Chem, 2023).
Calls of active or inactive are those of the source. The rule behind the calls is not given here.

Legend:
K562 [1] = test: Growth inhibition of human K562 cells assessed as reduction in cell viability measured after 48 hrs by SRB assay; format: functional
Hs-578T = test: Growth inhibition of human Hs-578T cells assessed as reduction in cell viability measured after 48 hrs by SRB assay; format: functional
SK-MEL-5 = test: Growth inhibition of human SK-MEL-5 cells assessed as reduction in cell viability measured after 48 hrs by SRB assay; format: functional
EKVX = test: Growth inhibition of human EKVX cells assessed as reduction in cell viability measured after 48 hrs by SRB assay; format: functional
K562 [2] = test: Induction of autophagy in human K562 cells assessed as increase in beclin-1 level at 2.56 uM measured after 24 hrs by Western blotting analysis; format: functional, cell-based
OVCAR-5 = test: Growth inhibition of human OVCAR-5 cells assessed as reduction in cell viability measured after 48 hrs by SRB assay; format: functional
SF-268 = test: Growth inhibition of human SF-268 cells assessed as reduction in cell viability measured after 48 hrs by SRB assay; format: functional
[3] = Cytotoxicity against African green monkey Vero cells assessed as decrease in number of viable cells at 30 uM measured after 48 hrs by SRB assay relative to control; format: toxicity, cell-based; conditions: chlorocebus sabaeus
HCC 2998 = test: Growth inhibition of human HCC 2998 cells assessed as reduction in cell viability measured after 48 hrs by SRB assay; format: functional
[4] = target: Mitogen-activated protein kinase 9 (Homo sapiens, UniProt P45984); test: Inhibition of human JNK2 at 10 uM in presence of ATP relative to control
Chain of Mitogen-activated protein kinase 9 (P45984 whole entry, looked up): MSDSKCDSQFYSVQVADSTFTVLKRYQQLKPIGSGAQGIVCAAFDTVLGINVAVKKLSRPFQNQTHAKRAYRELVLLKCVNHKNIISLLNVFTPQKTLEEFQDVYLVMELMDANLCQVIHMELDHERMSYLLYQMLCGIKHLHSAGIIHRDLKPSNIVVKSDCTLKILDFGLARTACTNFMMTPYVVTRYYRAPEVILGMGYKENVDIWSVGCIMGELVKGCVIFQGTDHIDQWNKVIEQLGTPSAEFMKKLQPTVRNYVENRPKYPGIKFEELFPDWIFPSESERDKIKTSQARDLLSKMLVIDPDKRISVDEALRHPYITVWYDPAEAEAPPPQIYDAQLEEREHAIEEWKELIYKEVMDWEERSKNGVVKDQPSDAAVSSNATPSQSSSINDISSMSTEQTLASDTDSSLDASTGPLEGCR

[5] = target: T1, Mitogen-activated protein kinase 8 (Homo sapiens, UniProt P45983); test: Inhibition of human JNK1 in presence of ATP
T1 sequence (P45983 whole entry): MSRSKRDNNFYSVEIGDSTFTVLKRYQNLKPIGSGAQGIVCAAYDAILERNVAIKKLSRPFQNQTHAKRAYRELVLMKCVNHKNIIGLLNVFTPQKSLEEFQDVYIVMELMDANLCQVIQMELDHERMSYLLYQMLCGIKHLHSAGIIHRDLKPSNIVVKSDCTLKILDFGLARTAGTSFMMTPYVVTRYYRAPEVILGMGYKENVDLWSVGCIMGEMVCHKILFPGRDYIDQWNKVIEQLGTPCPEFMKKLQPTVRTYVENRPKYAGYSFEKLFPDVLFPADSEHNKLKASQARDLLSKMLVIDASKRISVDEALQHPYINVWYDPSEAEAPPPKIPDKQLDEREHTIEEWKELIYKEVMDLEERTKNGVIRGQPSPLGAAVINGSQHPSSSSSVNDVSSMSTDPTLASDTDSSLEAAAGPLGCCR

A549 = test: Growth inhibition of human A549 cells assessed as reduction in cell viability measured after 48 hrs by SRB assay; format: functional
HOP-92 = test: Growth inhibition of human HOP-92 cells assessed as reduction in cell viability measured after 48 hrs by SRB assay; format: functional
K562 [6] = test: Induction of cell cycle arrest in human K562 cells assessed as accumulation of cells at G0/G1 phase at 0.64 uM measured after 24 hrs by PI staining based flow cytometry analysis (reference value: 46.72%); format: functional
SK-OV-3 = test: Growth inhibition of human SK-OV-3 cells assessed as reduction in cell viability measured after 48 hrs by SRB assay; format: functional
[7] = target: T1, Mitogen-activated protein kinase 8; test: Inhibition of human JNK1 at 10 uM in presence of ATP relative to control
MDA-MB-435 = test: Growth inhibition of human MDA-MB-435 cells assessed as reduction in cell viability measured after 48 hrs by SRB assay; format: functional
UACC-257 = test: Growth inhibition of human UACC-257 cells assessed as reduction in cell viability measured after 48 hrs by SRB assay; format: functional
K562 [8] = test: Induction of cell cycle arrest in human K562 cells assessed as accumulation of cells at G0/G1 phase at 1.28 uM measured after 24 hrs by PI staining based flow cytometry analysis (reference value: 46.72%); format: functional
K562 [9] = test: Induction of cell cycle arrest in human K562 cells assessed as accumulation of cells at SubG1 phase at 2.56 uM measured after 24 hrs by PI staining based flow cytometry analysis (reference value: 2.21%); format: functional
K562 [10] = test: Induction of cell cycle arrest in human K562 cells assessed as accumulation of cells at SubG1 phase at 1.28 uM measured after 24 hrs by PI staining based flow cytometry analysis (reference value: 2.21%); format: functional
RXF 393 = test: Growth inhibition of human RXF 393 cells assessed as reduction in cell viability measured after 48 hrs by SRB assay; format: functional
MDA-MB-231 = test: Growth inhibition of human MDA-MB-231 cells assessed as reduction in cell viability measured after 48 hrs by SRB assay; format: functional
[11] = Cytotoxicity against African green monkey Vero cells assessed as decrease in number of viable cells at 100 uM measured after 48 hrs by SRB assay relative to control; format: toxicity, cell-based; conditions: chlorocebus sabaeus
[12] = Cytotoxicity against African green monkey Vero cells assessed as decrease in population of viable cells at 0 to 10 uM measured after 48 hrs by SRB assay relative to control; format: toxicity, cell-based; conditions: chlorocebus sabaeus, dose 0-10 µM
K562 [13] = test: Induction of apoptosis in human K562 cells assessed as early apoptotic cells at 0.64 uM incubated for 24 hrs by annexinV and propidium iodide staining based flow cytometry analysis (reference value: 1.17%); format: functional
K562 [14] = test: Induction of cell cycle arrest in human K562 cells assessed as accumulation of cells at SubG1 phase at 1.25 uM measured after 24 hrs by PI staining based flow cytometry analysis (reference value: 3.43%); format: functional
K562 [15] = test: Induction of cell cycle arrest in human K562 cells assessed as accumulation of cells at G2/M phase at 1.25 uM measured after 24 hrs by PI staining based flow cytometry analysis (reference value: 29.44%); format: functional
K562 [16] = test: Induction of cell cycle arrest in human K562 cells assessed as accumulation of cells at G2/M phase at 5 uM measured after 24 hrs by PI staining based flow cytometry analysis (reference value: 29.44%); format: functional
K562 [17] = test: Induction of cell cycle arrest in human K562 cells assessed as accumulation of cells at G0/G1 phase at 1.25 uM measured after 24 hrs by PI staining based flow cytometry analysis (reference value: 46.67%); format: functional
K562 [18] = test: Induction of cell cycle arrest in human K562 cells assessed as accumulation of cells at G0/G1 phase at 0.64 uM measured after 24 hrs by PI staining based flow cytometry analysis (reference value: 46.71%); format: functional
K562 [19] = test: Induction of apoptosis in human K562 cells assessed as late apoptotic cells at 0.64 uM incubated for 24 hrs by annexinV and propidium iodide staining based flow cytometry analysis (reference value: 1.34%); format: functional
K562 [20] = test: Induction of cell cycle arrest in human K562 cells assessed as accumulation of cells at G2/M phase at 1.28 uM measured after 24 hrs by PI staining based flow cytometry analysis (reference value: 29.092%); format: functional
K562 [21] = test: Induction of cell cycle arrest in human K562 cells assessed as accumulation of cells at SubG1 phase at 0.64 uM measured after 24 hrs by PI staining based flow cytometry analysis (reference value: 2.48%); format: functional
K562 [22] = test: Induction of cell cycle arrest in human K562 cells assessed as accumulation of cells at SubG1 phase at 1.28 uM measured after 24 hrs by PI staining based flow cytometry analysis (reference value: 2.48%); format: functional
K562 [23] = test: Induction of apoptosis in human K562 cells assessed as late apoptotic cells at 5 uM incubated for 24 hrs by annexinV and propidium iodide staining based flow cytometry analysis (reference value: 1.342%); format: functional
K562 [24] = test: Induction of apoptosis in human K562 cells assessed as late apoptotic cells at 2.56 uM incubated for 24 hrs by annexinV and propidium iodide staining based flow cytometry analysis (reference value: 1.34%); format: functional

| Structure (SMILES) | GI50 (K562 [1]) | GI50 (Hs-578T) | GI50 (SK-MEL-5) | GI50 (EKVX) | GI50 (OVCAR-5) | GI50 (SF-268) | GI50 (HCC 2998) | inhibition [4] | IC50 [5] | GI50 (A549) | GI50 (HOP-92) | GI50 (SK-OV-3) | inhibition [7] | GI50 (MDA-MB-435) | GI50 (UACC-257) | GI50 (RXF 393) | GI50 (MDA-MB-231) | further results |
| --- | --- | --- | --- | --- | --- | --- | --- | --- | --- | --- | --- | --- | --- | --- | --- | --- | --- | --- |
| CC(C)(C)n1cc(-c2ccnc(NCCCNS(=O)(=O)c3ccc(Cl)cc3)c2)c(-c2cccc(O)c2)n1 | 1280 nM | 1840 nM | 1440 nM | 2040 nM | 1570 nM | 2180 nM | 1760 nM | 98.9% | 43.8 nM | 1970 nM | 1490 nM | 2350 nM | 100% | 1790 nM | 1860 nM | 1460 nM | 1870 nM | Activity (K562 [2]): inactive; Activity [3]: 53%; Activity (K562 [6]): 25.21%; Activity (K562 [8]): 7.27%; Activity (K562 [9]): 0.07%; Activity (K562 [10]): 0.23%; Activity [11]: 27%; Activity [12]: 68%; Activity (K562 [13]): 1.07% |
| CC(C)(C)n1cc(-c2ccnc(NCCCNS(=O)(=O)c3cccc4ccccc34)c2)c(-c2cccc(O)c2)n1 | 1480 nM | 1890 nM | 1520 nM | 2130 nM | 1980 nM | 2770 nM | 1870 nM | 99.1% | 80.3 nM | 2290 nM | 1710 nM | 2630 nM | 100% | 1760 nM | 2070 nM | 1520 nM | 2320 nM | – |
| CC(C)(C)n1cc(-c2ccnc(NCCCNS(=O)(=O)c3ccc(Br)cc3)c2)c(-c2cccc(O)c2)n1 | 2020 nM | 2240 nM | 1520 nM | 1950 nM | 1870 nM | 2400 nM | 1920 nM | 99.3% | 97.8 nM | 2110 nM | 1560 nM | 2520 nM | 98.8% | 1820 nM | 2010 nM | 1460 nM | 1740 nM | – |
| O=C1c2ccccc2-c2n[nH]c3cccc1c23 | 48600 nM | 55100 nM | 14600 nM | 20000 nM | 24400 nM | 18400 nM | 9620 nM | – | – | 14900 nM | 37600 nM | 21000 nM | – | 12800 nM | 29500 nM | 20800 nM | 65300 nM | Activity (K562 [14]): 4.71%; Activity (K562 [15]): 41.64%; Activity (K562 [16]): 47.08%; Activity (K562 [17]): 34.01%; Activity (K562 [18]): 27.69%; Activity (K562 [19]): 1.14%; Activity (K562 [20]): 47.55%; Activity (K562 [21]): 4.68%; Activity (K562 [22]): 7.26%; Activity (K562 [23]): 4.12%; Activity (K562 [24]): 3.7% |
| CC(C)(C)n1cc(-c2ccnc(NCCCNS(=O)(=O)c3ccc(C(F)(F)F)cc3)c2)c(-c2cccc(O)c2)n1 | 2100 nM | 1980 nM | 1600 nM | 1820 nM | 1810 nM | 1750 nM | 1820 nM | 98.7% | 142 nM | 2020 nM | 1600 nM | 2690 nM | 99.5% | 1810 nM | 2070 nM | 1460 nM | 2130 nM | – |
